Assay results reported in patent publication EP0771564A1, “INTERLEUKIN-5 PRODUCTION INHIBITOR” (TAISHO PHARMACEUTICAL CO. LTD, priority 1994, dated 1996).
pIC50: −log10 of the molar value.

Tests used:
ICR male mice = experiment: Oral administration safety test in mice (mortality); format: in vivo; details: orally administered to ICR male mice, dose level of 100 mg/kg
Text: The compounds of Examples 1 and 2 were orally administered to ICR male mice grouped in fives.

IL-5 production = experiment: Inhibition of IL-5 production by antigen-stimulated murine Th2 clone D10.G4.1 cells (IL-5 ELISA of culture supernatant); format: cell-based, mice; details: inhibitory effect on IL-5 production, D10.G4.1 cells with MMC-treated antigen presenting cells and conalbumin, 48 hours incubation
Description: Murine Th2 clone (D10.G4.1 cells) was purchased from ATCC. Antigen presenting cells were prepared by suspending 1 x 10^7 spleen cells of a 8-week-old female C3H/HeN mice in 5 ml of an RPMI-1640 medium and incubated together with 50 µg/ml of mitomycin C (MMC) at 37°C for 30 minutes and then washed with three 50 ml portions of RPMI-1640. To RPMI-1640 containing 10% bovine serium were added 0.5 U of IL-2 (produced by Genzyme) and 5 x 10^-5 M of 2-mercaptoethanol to prepare a medium for tissue culture.
In each well of a 96-well microtiter plate (produced by Corning Glass Works) were put each 50 µl/well of 4 x 10^5 cells/ml of D10.G4.1 cells, 2 x 10^6 cells/ml of MMC-treated antigen presenting cells, 400 µg/ml of conalbumin (produced by Sigma) as an antigen and the solution of the test compound in the tissue culture medium (to make 200 µl/well), and incubated in an incubator under 5% CO2 at 37°C for 48 hours. After completion of the incubation, the supernatant liquor of the culture was collected, and the cells were seprated by centrifugation. The IL-5 in the supernatant liquor was determined with an IL-5 ELISA kit produced by ENDOGEN.

| Compound | death (ICR male mice) | pIC50 (IL-5 production) | pIC50 (IL-5 production; Mus musculus) |
| --- | --- | --- | --- |
| CCC1OC(=O)C(C)C(Oc2c(F)c(F)c(F)c(F)c2[N+](=O)[O-])C(C)C(OC2OC(C)CC(N(C)C)C2O)C(C)(OC)CC(C)C(=O)C(C)C(O)C1(C)O (centres unmarked) [Compound of Example 2, 3-O-(2-Nitro-3,4,5,6-tetrafluoro)-phenyl-5-O-desosaminyl-6-O-methylerythronolide A] | No death was observed | > 7.00 | – |
| CC[C@H]1OC(=O)[C@H](C)[C@@H](O[C@H]2C[C@@](C)(OC)[C@@H](O)[C@H](C)O2)[C@H](C)[C@@H](O[C@@H]2O[C@H](C)C[C@H](N(C)C)[C@H]2O)[C@](C)(O)C[C@@H](C)/C(=N\OCOCCOC)[C@H](C)[C@@H](O)[C@]1(C)O [Roxithromycin, reference compound] | – | – | 6.03 |
| CC[C@H]1OC(=O)[C@H](C)[C@@H](O[C@H]2C[C@@](C)(OC)[C@@H](O)[C@H](C)O2)[C@H](C)[C@@H](O[C@@H]2O[C@H](C)C[C@H](N(C)C)[C@H]2O)[C@](C)(O)C[C@@H](C)C(=O)[C@H](C)[C@@H](O)[C@]1(C)O [Erythromycin, reference compound] | – | – | 5.35 |
| 3-O-(4-Biphenyl)acetyl-5-O-desosaminyl-6-O-methylerythronolide A 11,12-Cyclic Carbonate [Compound of Example 1] | – | > 6.40 | – |
